Test results as given in patent publication US20050101595A1, “N-containing cycloalkyl-substituted amino-thiazole derivatives and pharmaceutical compositions for inhibiting cell proliferation and methods for their use” (PFIZER INC., priority 2003, published 2005).

Assays:
CDK2/Cyclin A = CDK2/Cyclin A (Homo sapiens, UniProt P24941); assay: Inhibition of CDK2/Cyclin A Retinoblastoma Kinase Activity; format: biochemical; details: at 0.03 μM
Outline: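 Percent inhibition is calculated against DMSO-only wells after subtracting no-enzyme background. The enzyme is human CDK2 complexed with proteolyzed cyclin A, used at 10 nM or 19 nM on an Rb fragment with 25 μM [32/33P]ATP, at pH 7.4 and 30° C.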

[1] = molecular target: human CDK4 and genetically truncated (1-264) cyclin D3 (Homo sapiens, UniProt P11802); assay: Inhibition of CDK4/Cyclin D Retinoblastoma Kinase Activity; format: biochemical; details: at 0.03 μM
Outline: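 Apparent Ki values derive from fitting activity at varied inhibitor concentrations to a competitive (or competitive tight-binding) model. Kinase reactions used 5 nM CDK4/cyclin D3(1-264), Rb fragment substrate and 25 μM ATP. Incubation ran 20 min at 30 °C, extended to 60 min under linear conditions for tight binders.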

HCT-116 cell line = assay: Inhibition of cell growth, tetrazolium salt (MTT) assay; format: cell-based; details: HCT-116 cells
Outline: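 McCoy's 5A cultures; 4 h pre-incubation; compound dilutions in 0.5% v/v DMSO; 3–5 d, 37° C, 5% CO2; MTT 0.2 mg/mL final, 4 h; formazan dissolved in DMSO, A540; vs 0.5% DMSO vehicle.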

human CDK4 and genetically truncated (1-264) cyclin D3, sequence (P11802 whole entry, the tested form may be a part): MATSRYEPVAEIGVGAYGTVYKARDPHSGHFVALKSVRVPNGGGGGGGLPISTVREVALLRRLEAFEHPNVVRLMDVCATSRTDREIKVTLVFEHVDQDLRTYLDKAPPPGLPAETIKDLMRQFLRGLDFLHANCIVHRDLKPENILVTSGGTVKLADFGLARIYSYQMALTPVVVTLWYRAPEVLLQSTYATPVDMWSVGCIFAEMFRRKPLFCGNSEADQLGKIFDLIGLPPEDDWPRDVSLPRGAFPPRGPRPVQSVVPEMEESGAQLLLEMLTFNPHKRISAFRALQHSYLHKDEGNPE
human CDK4 and genetically truncated (1-264) cyclin D3, sequence (P30281 1-264 partner): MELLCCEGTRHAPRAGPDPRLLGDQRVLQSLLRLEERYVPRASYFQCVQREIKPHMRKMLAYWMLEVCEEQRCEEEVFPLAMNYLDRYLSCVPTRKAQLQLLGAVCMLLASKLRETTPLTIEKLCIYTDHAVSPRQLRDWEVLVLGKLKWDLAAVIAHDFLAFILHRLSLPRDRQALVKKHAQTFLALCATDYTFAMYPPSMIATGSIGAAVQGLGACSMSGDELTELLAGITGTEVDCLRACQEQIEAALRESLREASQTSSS

| SMILES | CDK2 % Inhibition at 0.03 μM (CDK2/Cyclin A) | CDK4 % Inhibition at 0.03 μM [1] | HCT-116 % Inhibition at 0.1 μM (HCT-116 cell line) | HCT-116 5 Inhibition at 0.25 μM (HCT-116 cell line) |
| --- | --- | --- | --- | --- |
| Nc1nc(NC2CCN(C(=O)c3cccnc3Sc3ccc(Cl)cc3)CC2)sc1C(=O)c1c(F)cccc1F [Example R43] | −73% | 2% | 4% | 46 |
| Nc1nc(NC2CCN(C(=O)c3cccnc3Oc3ccc(Cl)cc3)CC2)sc1C(=O)c1c(F)cccc1F [Example R44] | 16% | 25% | 0% | 41 |
| Cc1c(S(=O)(=O)c2ccc(Cl)cc2)csc1C(=O)N1CCC(Nc2nc(N)c(C(=O)c3c(F)cccc3F)s2)CC1 [Example R47] | −7% | 20% | 8% | 45 |
| COc1c(C(=O)N2CCC(Nc3nc(N)c(C(=O)c4c(F)cccc4F)s3)CC2)csc1Cl [Example R49] | 34% | 55% | 0% | 61 |
| COc1c(C(=O)N2CCC(Nc3nc(N)c(C(=O)c4c(F)cccc4F)s3)CC2)csc1Br [Example R50] | 51% | 44% | 0% | 48 |
| Nc1nc(NC2CCN(C(=O)c3sccc3Cl)CC2)sc1C(=O)c1c(F)cccc1F [Example R51] | 62% | 48% | 0% | 37 |
| Nc1nc(NC2CCN(C(=O)c3c(F)cc(F)cc3F)CC2)sc1C(=O)c1c(F)cccc1F [Example R53] | 24% | 32% | 0% | 30 |
| Nc1nc(NC2CCN(C(=O)C34CC5CC(CC(C5)C3)C4)CC2)sc1C(=O)c1c(F)cccc1F [Example R54] | 21% | 38% | 0% | 39 |
| Nc1nc(NC2CCN(C(=O)c3cc(C(F)(F)F)ccc3C(F)(F)F)CC2)sc1C(=O)c1c(F)cccc1F [Example R55] | 11% | 37% | 5% | 51 |
| Nc1nc(NC2CCN(C(=O)c3c(Cl)cc(Cl)cc3Cl)CC2)sc1C(=O)c1c(F)cccc1F [Example R56] | 14% | 8% | 0% | 43 |
| Nc1nc(NC2CCN(C(=O)c3csc(C4COc5ccccc5O4)n3)CC2)sc1C(=O)c1c(F)cccc1F (stereo not shown) [Example R57] | 23% | 36% | 0% | 47 |
| COc1ccc(C=CC(=O)N2CCC(Nc3nc(N)c(C(=O)c4c(F)cccc4F)s3)CC2)c(Cl)c1OC [Example R61] | 63% | 59% | 0% | 37 |
| CC(C)S(=O)(=O)c1csc(C(=O)N2CCC(Nc3nc(N)c(C(=O)c4c(F)cccc4F)s3)CC2)c1Cl [Example R62] | 65% | 78% | 0% | 38 |
| CC(C)S(=O)(=O)c1csc(C(=O)N2CCC(Nc3nc(N)c(C(=O)c4c(F)cccc4F)s3)CC2)c1 [Example R63] | 11% | 12% | 0% | 38 |
| Cc1ccc(S(=O)(=O)CC(=O)N2CCC(Nc3nc(N)c(C(=O)c4c(F)cccc4F)s3)CC2)cc1 [Example R65] | 9% | 24% | 3% | 31 |
| CC12CCC(C(=O)N3CCC(Nc4nc(N)c(C(=O)c5c(F)cccc5F)s4)CC3)(OC1=O)C2(C)C (stereo not shown) [Example R67] | 11% | 22% | 4% | 40 |
| Nc1nc(NC2CCN(C(=O)c3ccc(Oc4cc(Cl)cc(Cl)c4)o3)CC2)sc1C(=O)c1c(F)cccc1F [Example R69] | 29% | 35% | 0% | 41 |
| Cc1nnsc1C(=O)N1CCC(Nc2nc(N)c(C(=O)c3c(F)cccc3F)s2)CC1 [Example R70] | 21% | 12% | 0% | 44 |
| CS(=O)(=O)c1csc(C(=O)N2CCC(Nc3nc(N)c(C(=O)c4c(F)cccc4F)s3)CC2)c1Cl [Example R72] | 57% | 59% | 6% | 43 |
| Nc1nc(NC2CCN(C(=O)[C@H](Cc3ccccc3)NS(=O)(=O)c3cccc4ccccc34)CC2)sc1C(=O)c1c(F)cccc1F [Example R73] | 6% | 19% | 4% | 38 |
| Nc1nc(NC2CCN(C(=O)[C@H](Cc3ccccc3)NS(=O)(=O)c3ccc([N+](=O)[O-])cc3)CC2)sc1C(=O)c1c(F)cccc1F [Example R74] | 3% | 20% | 0.12% | 42 |

Second part, led by results:

| CDK2 % Inhibition at 0.03 μM (CDK2/Cyclin A) | CDK4 % Inhibition at 0.03 μM [1] | SMILES | HCT-116 % Inhibition at 0.1 μM (HCT-116 cell line) | HCT-116 5 Inhibition at 0.25 μM (HCT-116 cell line) |
| --- | --- | --- | --- | --- |
| 24% | 32% | Nc1nc(NC2CCN(C(=O)c3cccnc3Sc3ccccc3)CC2)sc1C(=O)c1c(F)cccc1F [Example R41] | 0% | 41 |
| 49% | 53% | Cc1ccc(Sc2ncccc2C(=O)N2CCC(Nc3nc(N)c(C(=O)c4c(F)cccc4F)s3)CC2)cc1 [Example R42] | 0% | 48 |
| 37% | 49% | Cc1ccc(Oc2ncccc2C(=O)N2CCC(Nc3nc(N)c(C(=O)c4c(F)cccc4F)s3)CC2)cc1 [Example R45] | 2% | 36 |
| 71% | 83% | Nc1nc(NC2CCN(C(=O)c3ccno3)CC2)sc1C(=O)c1c(F)cccc1F [Example R46] | 0.47% | 37 |
| 16% | 32% | Cc1nn(C)c2ccc(C(=O)N3CCC(Nc4nc(N)c(C(=O)c5c(F)cccc5F)s4)CC3)c(Cl)c12 [Example R48] | 0% | 50 |
| 5% | 23% | Nc1nc(NC2CCN(C(=O)c3cnn(-c4ccccc4)c3C(F)(F)F)CC2)sc1C(=O)c1c(F)cccc1F [Example R52] | 2% | 49 |
| 41% | 72% | CC(C)(C)c1cc(C(=O)N2CCC(Nc3nc(N)c(C(=O)c4c(F)cccc4F)s3)CC2)n(Cc2ccccc2)n1 [Example R58] | 5% | 44 |
| 16% | 25% | Cc1cc(C(=O)N2CCC(Nc3nc(N)c(C(=O)c4c(F)cccc4F)s3)CC2)n(C(C)(C)C)n1 [Example R59] | 4% | 47 |
| 45% | 69% | Cn1nc(C(C)(C)C)cc1C(=O)N1CCC(Nc2nc(N)c(C(=O)c3c(F)cccc3F)s2)CC1 [Example R60] | 0% | 29 |
| 9% | 10% | Cc1cc(C(=O)N2CCC(Nc3nc(N)c(C(=O)c4c(F)cccc4F)s3)CC2)no1 [Example R64] | 0% | 42 |
| 16% | 27% | CC(C)(Oc1ccc(Cl)cc1)C(=O)N1CCC(Nc2nc(N)c(C(=O)c3c(F)cccc3F)s2)CC1 [Example R66] | 0.54% | 42 |
| 22% | 15% | CCn1nc(C)c(Br)c1C(=O)N1CCC(Nc2nc(N)c(C(=O)c3c(F)cccc3F)s2)CC1 [Example R68] | 0% | 33 |
| 33% | 51% | CCCc1c(C(=O)N2CCC(Nc3nc(N)c(C(=O)c4c(F)cccc4F)s3)CC2)cnn1-c1ccccc1 [Example R71] | 0% | 44 |
